Experimental findings from EP2626073A1, “Compound for use in the prevention and/or treatment of a neurogenerative disease or a disease involving an activation of phosphodiesterase-4 (PDE4)” (Harmonic Pharma, priority 2012, dated 2013) are described below.

The test system of assay [1] is cAMP level in HEK293 cells. Kind of assay: Measurement of cAMP level by ELISA. It is filed as cell-based. On the procedure:
Measurement of cAMP level: HEK293 cells were cultured in DMEM medium containing 10 % FCS. Cells were plated in 12-well plates at a density of 400.000 cells per well and cultured for 24h at 37°C in a humidified 6% CO2 atmosphere. Cells were then incubated for 1 h with increasing concentrations of tivozanib and then treated with vehicle or 25 µM forskolin for 15 minutes. Following washing steps and cell lysis, cellular level of cAMP level was monitored using an ELISA assay (Cyclic AMP XP assay kit - Cell signaling). Data are from 2 experiments performed in duplicate. Data are represented as fold increase of cAMP as compared to experiment using forskolin only, designed as 1.0 (figure 7).
Effects of tivozanib on cAMP level in HEK293 cells: In order to evaluate the potential effect of tivozanib on PDE4 activity in living cells, the HEK293 cell line was used. These cells are widely used for identification and validation of PDE4 modulators in mild as well as high throughput screening assays. Indeed, the control of cAMP level and hydrolysis in HEK293 cells are predominantly supported by PDE4.

The test system of assay [2] is Male C57BL/6 mice. Kind of assay: Y-maze test of spatial working memory after icv Aβ oligomers. The assay is classed as in vivo. As to the method:
Animals: All animal experiments were carried out according to the National Institute of Health (NIH) guidelines for the care and use of laboratory animals, and approved by the French Ministry for Research and Technology. Animals were housed at a standard temperature (22±1°C) and in a light-controlled environment (lights on from 7 am to 8 pm) with ad libitum access to food and water. Upon arrival, Male C57BL/6 mice (C57BL/6J Rj, ref SC-CJ-12w-M, Janvier, France) were group housed. From 1 week before the experiment started and until the end of the experiment, mice were individually housed. Animals were monitored twice-a-day by laboratory personnel (8 am and 4 pm). […]
Surgery and intracerebroventricular (icv) infusion of low-n Aβ oligomers: Immediate spatial working memory performance was assessed by recording spontaneous alternation behavior in a Y-maze system, as previously described (Youssef et al., Neurobiology of Aging, 29 (2008) 1319-1333; Garcia et al., The Journal of Neuroscience, June 2,2010, 30(22) 7516-7527). […]
Investigation of the spatial working memory - Y maze test: Immediate spatial working memory performance was assessed by recording spontaneous alternation behavior in a Y-maze system, as previously described (Youssef et al., 2008; Garcia et al., 2010, see references above). […]

The test system of assay [3] is Rat cortical neurons. The assay can be described thus: Aβ oligomer-induced neuronal death, MTT assay. The assay is classed as cell-based, Wistar rat. The settings on record: 24 h. On the procedure:
Cell culture: Cortical neurons from embryonic day 16-17 Wistar rat fetuses were prepared as follows. Dissociated cortical cells were plated at 4.5-5.0 10^4 cells/cm^2 in plastic dishes precoated with 1.5 mg/mL polyornithine (Sigma). Cells were cultured in a chemically defined Dulbecco's modified eagle's/F12 medium free of serum (Gibco) and supplemented with hormones, proteins and salts. Cultures were kept at 35°C in a humidified 5% CO2 atmosphere, and at 6-7 DIV, cortical population was determined to be at least 97% neuronal by immunostaining.
Preparation of low-n β-amyloid (Aβ) oligomers: The peptide used is Aβ1-42 from Bachem (ref H1368, batch number: 1025459). The oligomeric preparation contains a mixture of stable dimers, trimers and tetramers of Aβ1-42 peptide, as well as monomeric forms of the peptide.
Preparation of tivozanib solution: Tivozanib was dissolved in DMSO. A stock solution (10 mM DMSO) was prepared, and aliquots were stored at -20 °C before use.
Treatment and measurement of cell viability: All experiments were done in 48 well plates. […] Following 24h of incubation, neuronal viability was monitored using the MTT assay (Garcia et al., The Journal of Neuroscience, June 2,2010, 30(22), 7516-7527; Desbene et al., Neurobiology of Aging, 33 (2012) 1123.e17-1123.e-29). Data were obtained from one experiment with 4 determinations each and expressed as means + SD.
On the technique in general: Tetrazolium dyes change colour on reduction, which living cells bring about.

For assay [4], the target named is PDE4. The assay can be described thus: PDE4 isolated enzyme two-step radioenzymatic PDE assay. It is filed as biochemical. The settings on record: 1 µM cAMP substrate, 30°C, 30 min; read-out: inhibition concentration value (IC50).

`COc1cc2nccc(Oc3ccc(NC(=O)Nc4cc(C)on4)c(Cl)c3)c2cc1OC` [tivozanib, N-{2-chloro-4-[(6,7-dimethoxy-4-quinolyl)oxy]-phenyl}-N'-(5-methyl-3-isoxazolyl)urea]: the cAMP level result in assay [1] (absence of forskolin, increasing concentrations up to 50 µM, 1 h) is given as “did not result in an increase of cAMP level”; in assay [1] (presence of 25 µM forskolin for 15 minutes, increasing concentrations, 1 h pre-incubation), “dose-response accumulation of cAMP”. For the same compound, in assay [2] (group C: 30 mg/kg/day per os, vehicle icv, test day +4), the “behavior and spontaneous alternation performance” value is listed as “displayed a normal behavior”. Moreover, the “spatial working memory (spontaneous alternation)” value in assay [2] (group D: 30 mg/kg/day per os day -2 to +4, Aβ oligomers 50 pmol icv day 0, test day +4) was “significantly improved spatial working memory”. Besides, in assay [3] (tivozanib up to 10 µM added simultaneously with 1 µM Aβ1-42 oligomers), the “Aβ oligomer-induced cell death (cell viability, MTT)” value is reported as “protected cells towards Aβ oligomer-induced cell death”. Moreover, the IC50 in assay [4] stood at 4.8 µM.

Regarding Aβ1-42 oligomers, the “decrease of cell viability” value in assay [3] (1 µM Aβ1-42 oligomers alone, figure 6B CTRL) is recorded as roughly 40%.
